# Test results reported in patent US20250035641A1, “COMPOSITIONS AND METHODS RELATED TO PROTEIN LABELING” (The Chinese University of Hong Kong, priority 2023, published 2025).
# Tests used:
# Type in all cases: cell-based
# HTN-BRD4 = biological target: T1, HTN-BRD4 (Homo sapiens, UniProt O60885); test: Pulse-chase assay (HTN-BRD4 engagement in cells); conditions: 5 μM, within 15 mins treatment, HEK293T HTN-BRD4:fOGT 20:1
# T1 construct: HaloTag fragment; expressed in transfected cells; host or cells: HEK293T
# Experimental: For HTN-BRD4, as the OGTAC-1 to 3 were designed to be irreversibly linked to it, we developed a pulse-chase assay. […] All of three OGTACs efficiently reached HTN-BRD4, fully occupied the protein within 4 h. OGTAC 1 ranked first among three OGTACs, achieving […] 90% engagement within 15 mins treatment.
# 1×10^5 HEK293T cells were seeded in each well of 12 well plate. After cells attached, transfection reagents and plasmids were prepared and added in DMEM. After 24 h transfection, media were replaced by fresh warm complete media with DMSO or compounds. After certain time of OGTACs treatment, media in wells were replaced by fresh warm media with 5 μM rhodamine ligand. The cells were incubated in 37° C.′ for 15 mins. Then, media were aspirated and 100 μL IP lysis buffer (Thermo Scientific 87788) supplemented with 20 μM OGA inhibitor (Thiamet G, Bidepharm BD571819) and 100X protease inhibitor (MedChemExpress. HY-K0010) (referred as complete IP lysis buffer in the later paragraph) was added to each well. The lysate was incubated on ice for 20 min, spun down at 14,000 RPM at 4° C. for 15 mins, and the supernatant were collected for bicinchoninic acid (BCA) assay and normalized to a final 2 mg/mL. […] After running, in gel fluorescence at rhodamine channel (545/575 nm) was analysed by Bio-Rad ChemiDoc MP Imaging System. […]
# [1] = biological target: T2, fOGT (FKBP12^F36V fused-OGT) (Homo sapiens, UniProt P62942, F37V); test: Intact cell CETSA (fOGT engagement); conditions: HEK-293T, 4 h, HEK293T HTN-BRD4:fOGT=1:0.05
# T2 construct: expressed in transfected cells; host or cells: HEK293T
# Experimental: For fOGT engagement, we established a cellular thermal shift assay (CETSA). Using same co-expressing system, we treated cells with OGTAC 1-3 for 4 h, and conducted heat challenge to intact cells at a series of temperature to determine the corresponding melting temperature (Tm). […] HEK293T cells (2.5×10^6 cells) were seeded in 10 cm culture dish overnight for attachment. On the next day, cells were transfected with HTN-BRD4:fOGT=1:0.05 plasmid for 24 hours until ˜90% confluence. After treatment with 5 μM compounds or DMSO, cells were collected and washed with PBS. Subsequently, cells were re-suspended in 500 μL PBS and equally divided into 50 μL aliquots. The tubes were subjected to heat challenge at 37-53° C. for 5 mins, followed by cooling on ice. Cells were lysed by three repeated freeze-thaw cycles with liquid nitrogen and water bath. Lastly, cells were centrifuged at 14000 RPM for 15 mins and supernatants were collected for Western Blot analysis.
# HTN-CK2α = HTN-CK2α (Homo sapiens, UniProt P68400); test: Immunoblot of HTN-CK2α O-GlcNAcylation in HeLa cells; conditions: 125 nM, 8 h
# Experimental: FIG. 12: Immunoblotting analysis of effects of OGTAC-1 on HTN-CK2αin HeLa cell line. HeLa cells were transfected with fOGT:HTN-CK2α=1:0.1 for 24 h, followed by treatment of OGTAC-1 (125 nM) or other probes for 8 h. For OGTAC-1H, ‘++’ denotes 10-fold concentration of OGTAC-1, while “+” denote the same concentration of OGTAC-1. The quantification was conducted by immunoblot signal of RL2 relative to CK2α. as the mean±s.e.m. of n=3 biologically independent experiments. Statistical significance was calculated by unpaired t-tests.
# S347 is a well-defined O-GlcNAcylation site on CK2α, while S348 is the potential alternative site as it is adjacent to S347. To verify the O-GlcNAc sites induced by OGTAC-1 in HTN-CK2α. we constructed HTN-CK2α plasmids with S347A and S347A/S348A mutations. […] Collectively, these findings support the physiological relevance of O-GlcNAcylation induced by OGTAC-1.
# endogenous BRD4 = biological target: T3, endogenous BRD4 (Homo sapiens, UniProt O60885); test: IP-WB of endogenous BRD4 in cell line stably expressing fOGT
# T3 construct: endogenous BRD4 in cell line stably expressing fOGT; endogenous in cells
# Description: We next pursued the induction of POI O-GlcNAcylation independent of Halotag; this could facilitate the induction of O-GlcNAcylation on endogenous POIs for their functional dissection. […] As OGTAC-4 directly recruit BRD4, we first try to assess its potency on endogenous BRD4 in cell line stably expressing fOGT. […] Then, we overexpressed BRD4 together with fOGT in HEK293T cells to accommodate the readout to fit in IP-WB detection limit. As expected, in the co-expression system, we validated the O-GlcNAcylation inducing effect of OGTAC-4. […] Of note, OGTAC-4 promoted BRD4 O-GlcNAcylation and the formation of a stable ternary complex between BRD4 and fOGT at concentrations as low as 3 nM (FIG. 4C & FIG. 14). […] This may be due to the sub-stoichiometric catalytic activity of OGTAC-4; at lower concentration, OGTAC-4 can still be effective because after enzymatic transfer of O-GlcNAc from fOGT active site to BRD4, the BRD4 would dissociate from the original ternary complex and other unmodified BRD4 could be recruited to fOGT by OGTAC-4. However, OGTAC-1 covalently linked to HTN-BRD4, and AP1867 binds tightly to fOGT. therefore, once HTN-BRD4 dissociated, free OGTAC-1 molecules may form binary complex with fOGT and inhibit other HTN-BRD4 from formation of new ternary complex. […]
# T2 sequence (P62942 whole entry F37V, the tested form may be a part): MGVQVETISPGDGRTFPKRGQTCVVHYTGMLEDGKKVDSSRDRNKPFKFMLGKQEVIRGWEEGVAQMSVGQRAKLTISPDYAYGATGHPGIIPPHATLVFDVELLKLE
# Sequence of HTN-CK2α (P68400 with tags, fused parts or gaps): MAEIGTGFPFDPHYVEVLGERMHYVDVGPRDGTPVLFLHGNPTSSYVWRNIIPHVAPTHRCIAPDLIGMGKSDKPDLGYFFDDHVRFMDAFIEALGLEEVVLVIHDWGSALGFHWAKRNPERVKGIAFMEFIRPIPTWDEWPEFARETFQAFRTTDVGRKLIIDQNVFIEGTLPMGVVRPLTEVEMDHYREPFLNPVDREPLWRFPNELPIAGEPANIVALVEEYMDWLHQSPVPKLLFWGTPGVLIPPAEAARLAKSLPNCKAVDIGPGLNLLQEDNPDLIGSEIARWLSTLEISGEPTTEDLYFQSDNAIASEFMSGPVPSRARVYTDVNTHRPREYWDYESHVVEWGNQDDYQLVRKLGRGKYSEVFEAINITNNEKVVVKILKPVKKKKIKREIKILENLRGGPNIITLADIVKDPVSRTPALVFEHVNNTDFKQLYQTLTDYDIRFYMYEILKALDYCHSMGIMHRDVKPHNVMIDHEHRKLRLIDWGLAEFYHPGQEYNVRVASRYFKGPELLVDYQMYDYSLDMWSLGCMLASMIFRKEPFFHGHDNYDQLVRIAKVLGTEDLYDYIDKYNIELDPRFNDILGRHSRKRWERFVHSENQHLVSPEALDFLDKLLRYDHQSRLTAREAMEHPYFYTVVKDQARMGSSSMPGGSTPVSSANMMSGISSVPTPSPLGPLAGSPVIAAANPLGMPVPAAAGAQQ
# Sequence of HTN-CK2α (P62942+O15294 fused P62942:F37V partner): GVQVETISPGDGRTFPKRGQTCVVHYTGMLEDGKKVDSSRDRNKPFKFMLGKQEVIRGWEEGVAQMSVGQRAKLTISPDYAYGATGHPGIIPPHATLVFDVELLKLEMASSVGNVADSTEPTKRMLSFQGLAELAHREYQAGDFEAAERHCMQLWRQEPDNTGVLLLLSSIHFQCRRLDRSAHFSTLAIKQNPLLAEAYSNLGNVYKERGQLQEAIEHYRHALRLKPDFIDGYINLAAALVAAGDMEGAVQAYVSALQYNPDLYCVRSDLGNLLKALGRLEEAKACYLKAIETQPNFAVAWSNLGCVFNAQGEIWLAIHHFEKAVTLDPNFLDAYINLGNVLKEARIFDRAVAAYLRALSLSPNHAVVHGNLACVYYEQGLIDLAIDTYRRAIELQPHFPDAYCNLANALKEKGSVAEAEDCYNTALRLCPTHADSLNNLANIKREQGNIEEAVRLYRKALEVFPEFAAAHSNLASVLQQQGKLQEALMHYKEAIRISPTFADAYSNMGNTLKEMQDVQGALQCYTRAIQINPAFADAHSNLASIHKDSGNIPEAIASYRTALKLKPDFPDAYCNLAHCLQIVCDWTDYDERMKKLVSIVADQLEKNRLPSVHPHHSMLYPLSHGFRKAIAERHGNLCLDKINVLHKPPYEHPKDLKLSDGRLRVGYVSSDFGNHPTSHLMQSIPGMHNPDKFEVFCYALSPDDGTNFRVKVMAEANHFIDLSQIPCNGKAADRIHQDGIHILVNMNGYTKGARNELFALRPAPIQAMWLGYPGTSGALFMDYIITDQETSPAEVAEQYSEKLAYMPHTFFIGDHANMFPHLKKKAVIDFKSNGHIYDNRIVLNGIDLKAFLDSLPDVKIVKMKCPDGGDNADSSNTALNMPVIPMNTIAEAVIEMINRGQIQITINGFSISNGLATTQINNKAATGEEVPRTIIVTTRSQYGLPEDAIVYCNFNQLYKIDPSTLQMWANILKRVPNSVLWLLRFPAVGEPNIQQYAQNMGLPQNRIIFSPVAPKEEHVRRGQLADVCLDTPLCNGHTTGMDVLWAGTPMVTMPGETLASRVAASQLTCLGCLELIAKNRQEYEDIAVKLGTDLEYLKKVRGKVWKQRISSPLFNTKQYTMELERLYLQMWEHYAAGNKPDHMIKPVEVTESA
engagement of HTN-BRD4 (HTN-BRD4),ΔTm at 5 µM [1],effect on HTN-CK2α in HeLa cells (HTN-CK2α),"O-GlcNAc signal on endogenous BRD4 (IP-WB, RL2) (endogenous BRD4)",Structure (SMILES)
90%,1.4 °C,confirmed the effect,,"CC[C@H](C(=O)N1CCCC[C@H]1C(=O)O[C@H](CCc1ccc(OC)c(OC)c1)c1cccc(OCC(=O)NCCOCCOCCCCCCCl)c1)c1cc(OC)c(OC)c(OC)c1 [OGTAC-1, (R)-1-(3-(2-((2-(2-((6-chlorohexyl)oxy)ethoxy)ethyl)amino)-2-oxoethoxy)phenyl)-3-(3,4-dimethoxyphenyl)propyl (S)-1-((S)-2-(3,4,5-trimethoxyphenyl)butanoyl) piperidine-2-carboxylate]"
,,,failed to detect any signal,"CC[C@H](C(=O)N1CCCC[C@H]1C(=O)O[C@H](CCc1ccc(OC)c(OC)c1)c1cccc(OCC(=O)NCCCCCCNC(=O)C[C@@H]2N=C(c3ccc(Cl)cc3)c3c(sc(C)c3C)-n3c(C)nnc32)c1)c1cc(OC)c(OC)c(OC)c1 [OGTAC-4, (R)-1-(3-(2-((6-(2-((S)-4-(4-chlorophenyl)-2,3,9-trimethyl-6H-thieno[3,2-f[]8 1,2,4]triazolo[4,3-a][1,4]diazepin-6-yl)acetamido)hexyl)amino)-2-oxoethoxy)phenyl)-3-(3,4-dimethoxyphenyl)propyl (S)-1-((S)-2-(3,4,5-trimethoxyphenyl)butanoyl)piperidine-2-carboxylate]"
